Reference: US20050164259A1, “Sequences” (priority 2001, published 2005)

Columns and labels:
[1] = molecular target: T1, pyranosone dehydratase (PD) (Phanerodontia chrysosporium, UniProt P84193); test: Conversion of AF or glucosone by pyranosone dehydratase, monitored at 226 nm; format: biochemical, Phanerochaete chrysosporium; settings: for OD 226 nm using substance as substrate: 22° C., 5.5 hours
T1 construct: The cell-free extract of Phanerochaete crysosporium was brought up to 55% ammonium sulphate saturation; endogenous in cells; host or cells: Phanerochaete chrysosporium ATCC 32629 and ATCC 24725; Native enzyme purified from cell-free extract by ammonium sulphate fractionation, then the procedure of Gabriel et al. 1993
T1 sequence (P84193 8-900 limits assumed): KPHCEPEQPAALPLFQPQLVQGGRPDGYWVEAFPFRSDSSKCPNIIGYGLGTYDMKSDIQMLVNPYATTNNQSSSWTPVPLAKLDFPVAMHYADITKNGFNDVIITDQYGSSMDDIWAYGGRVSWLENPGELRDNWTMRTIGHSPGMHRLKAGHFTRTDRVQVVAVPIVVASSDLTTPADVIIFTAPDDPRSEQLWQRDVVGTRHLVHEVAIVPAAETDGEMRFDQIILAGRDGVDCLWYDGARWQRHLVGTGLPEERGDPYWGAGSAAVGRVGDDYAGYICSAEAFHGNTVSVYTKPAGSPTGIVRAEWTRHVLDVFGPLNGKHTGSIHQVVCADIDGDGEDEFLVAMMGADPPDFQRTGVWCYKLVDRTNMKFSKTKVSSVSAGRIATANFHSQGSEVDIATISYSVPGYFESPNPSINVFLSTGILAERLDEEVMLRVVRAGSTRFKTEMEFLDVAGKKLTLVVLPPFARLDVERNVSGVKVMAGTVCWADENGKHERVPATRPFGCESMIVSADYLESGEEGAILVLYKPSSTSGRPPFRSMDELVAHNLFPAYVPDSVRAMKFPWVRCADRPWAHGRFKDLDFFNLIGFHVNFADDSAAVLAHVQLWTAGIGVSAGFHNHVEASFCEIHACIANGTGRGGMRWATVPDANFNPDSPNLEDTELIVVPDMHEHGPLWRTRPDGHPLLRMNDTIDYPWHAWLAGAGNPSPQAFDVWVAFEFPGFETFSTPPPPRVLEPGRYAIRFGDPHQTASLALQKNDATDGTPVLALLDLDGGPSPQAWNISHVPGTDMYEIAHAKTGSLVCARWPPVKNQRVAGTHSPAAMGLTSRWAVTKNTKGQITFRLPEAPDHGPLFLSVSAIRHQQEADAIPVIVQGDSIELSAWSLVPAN

Aphanomyces = test: Field emergence trial FEHCPO34 Aphanomyces, pelleted sugar beet seeds; format: in vivo; settings: pellets containing the substance; in words
Source text: Based on these findings, the efficiency of microthecin was further investigated in a field emergence trial. The trial was sown relatively late giving it a higher chance for presence of the pathogen Aphanomyces in the trial field.
(§1) Seeds were pelleted with standard P1 pelleting mass with (1,2) or without (7,8)Thiram.
(§2) Inner coating: 0.3 gai/U microthecin as a 0.5% solution in water or • 14.7 gai/U Hymexazol. • 60 gai/U Imidacloprid.
(§3) Standard metallic green seed cover film.
Trial place Bukkehave, D K. (4 reps, 200 seeds/plot)

sugar beet seeds = test: Laboratory germination of pelleted sugar beet seeds; format: in vivo; settings: in words
Source text: as §1, §2, §3

Aphanomyces cochlioides [2] = test: Example 4 screening for growth inhibition on agar plates; format: cell-based; settings: very low concentrations; wells on PDA-agar plates, 3-5 days
Protocol: The effect of microthecin on the plant pathogenic fungi Pythium ultimum, Rhizoctonia solani and Aphanomyces cochlioides in vitro was investigated by screening for growth inhibition of the pathogens on agar-plates (FIGS. 6, 7, 8).
(§4) In each case, microthecin was dissolved in water and placed in wells in the periphery. An agar block containing the pathogen was placed in the centre. The pathogens were allowed to grow out on the PDA-agar plates for 3-5 days.

[3] = tested on: Bacillus (B. Pumilus DS96.734, B. megaterium DS98.124); test: Example 4 similar tests with other microorganisms; format: cell-based
Protocol: as §4

[4] = tested on: Pseudomonads (P. fluorescens DS96.578, P. mendocina DS98.124); test: Example 4 similar tests with other microorganisms; format: cell-based
Protocol: as §4

Pythium ultimum = test: Agar plate inhibition zone test (PDA), microthecin solutions; format: cell-based; settings: judged after 1-2 days of growth
Protocol: (§5) Basic microthecin solution: 24 mg/ml Batch no. Mic20011016
(§6) All solutions were filtered through a 0.22 μm filter for sterilisation.
(§7) A circular plug (diameter 10 mm) of fresh mycelium was placed at the centre on a petri-dish (diameter 9 cm) containing PDA medium. (PDA=Potato dextrose agar Difco no. 213400). Wells with a diameter of 5 mm were cut along the periphery of the agar plate. In each well were placed 50 μl of a test solution. Alternatively, 20 μl of each test solution were placed directly on the agar along the periphery of the plate. Also, 50 μl of each test solution were placed directly on top of the fungal mycelium plug.
(§8) The agar plates were placed at room temperature in daylight, but protected from direct sunlight.
(§9) The reaction (inhibition zones) of the fungi to the test substance was judged as follows: […]

Rhizoctonia solani = test: as above; format: cell-based; settings: judged after 2-3 days of growth
Protocol: as §5, §6, §7, §8, §9

Aphanomyces cochlioides [5] = test: as above; format: cell-based; settings: judged after 3-4 days of growth
Protocol: as §5, §6, §7, §8, §9

Cercospora beticola = test: as above; format: cell-based; settings: judged after 3-4 weeks of growth
Protocol: as §5, §6, §7, §8, §9

[6] = final substrate concentration 13.7 μg/ml reaction mixture
[7] = final substrate concentration 27.4 μg/ml reaction mixture
[8] = final substrate concentration 41.1 μg/ml reaction mixture
[9] = final substrate concentration 68.4 μg/ml reaction mixture
[10] = final substrate concentration 95.8 μg/ml reaction mixture
[11] = final substrate concentration 137 μg/ml reaction mixture
[12] = final substrate concentration 205 μg/ml reaction mixture

SMILES | Vmax with AF relative to glucosone ([1]; AF versus natural substrate glucosone) | OD 226 nm using substance as substrate [1, 6] | OD 226 nm using substance as substrate [1, 7] | OD 226 nm using substance as substrate [1, 8] | OD 226 nm using substance as substrate [1, 9] | OD 226 nm using substance as substrate [1, 10] | OD 226 nm using substance as substrate [1, 11] | OD 226 nm using substance as substrate [1, 12] | speed of germination in field emergence trials (Aphanomyces) | 4d>15mm germination (sugar beet seeds) | growth of Aphanomyces (Aphanomyces cochlioides [2]) | effect on the growth of Bacillus [3] | effect on Pseudomonads [4] | final germination in field (Aphanomyces) | minimum inhibition concentration (mic) (Pythium ultimum) [ppm] | minimum inhibition concentration (mic) (Rhizoctonia solani) [ppm] | minimum inhibition concentration (mic) (Aphanomyces cochlioides [5]) [ppm] | minimum inhibition concentration (mic) (Cercospora beticola) [ppm] | speed of laboratory germination (4d) (sugar beet seeds; inclusion in pellets)
O=C1CO[C@H](CO)[C@@H](O)[C@@H]1O [AF, 1,5-anhydro-D-fructose] | around 4.7 times | 0.308 | 0.534 | 0.76 | 1.246 | 1.764 | 2.43 | 2.943 | – | – | – | – | – | – | – | – | – | – | –
O=CC(=O)[C@@H](O)[C@H](O)[C@H](O)CO [Glucosone, D-arabino-hexos-2-ulose] | – | 0.069 | 0.104 | 0.141 | 0.238 | 0.323 | 0.484 | 0.634 | – | – | – | – | – | – | – | – | – | – | –
Cc1cc(O)no1 [Hymexazol] | – | – | – | – | – | – | – | – | germinate relatively slow | low 4d>15mm germination | – | – | – | – | – | – | – | – | –
O=C1C=CCOC1(O)CO (stereo not drawn) [microthecin] | – | – | – | – | – | – | – | – | comparable with pellets only containing Thiram | – | able to reduce the growth | no effect | slightly affected | high final germination | 480 | 240 | 1200 | 2400 | decreases the speed of laboratory germination
